Values of other authors in patent publication US20250099634A1, “METHOD OF TREATING CANCER” (Novartis AG, priority 2023, published 2025).

Test system: G1-2 midgut and pancreatic NET
Details: 120 mg/month, cited from earlier work

In the case of CC(C)[C@@H]1NC(=O)[C@H](CCCCN)NC(=O)[C@@H](Cc2c[nH]c3ccccc23)NC(=O)[C@H](Cc2ccc(O)cc2)NC(=O)[C@@H](NC(=O)[C@H](N)Cc2ccc3ccccc3c2)CSSC[C@@H](C(=O)N[C@H](C(N)=O)[C@@H](C)O)NC1=O [lanreotide], the “HR for progression or death with lanreotide vs. placebo” value (95% CI 0.30 to 0.73) is given as 0.47 and the “median PFS” value is given as “not reached”.
